Drawing on patent US20220274979A1 (Bayer Pharma Aktiengesellschaft, priority 2018, published 2022), this text covers IC50 for 4 molecules.

Assay [1] has as its target T1, hK-RasG12C - hSOS1 interaction (Homo sapiens, UniProt Q07889).
T1 construct: hSOS1 (amino acid 564-1049); made in house; host or cells: E. coli BL21 (DE3)
T1 sequence (Q07889 with tags, fused parts or gaps): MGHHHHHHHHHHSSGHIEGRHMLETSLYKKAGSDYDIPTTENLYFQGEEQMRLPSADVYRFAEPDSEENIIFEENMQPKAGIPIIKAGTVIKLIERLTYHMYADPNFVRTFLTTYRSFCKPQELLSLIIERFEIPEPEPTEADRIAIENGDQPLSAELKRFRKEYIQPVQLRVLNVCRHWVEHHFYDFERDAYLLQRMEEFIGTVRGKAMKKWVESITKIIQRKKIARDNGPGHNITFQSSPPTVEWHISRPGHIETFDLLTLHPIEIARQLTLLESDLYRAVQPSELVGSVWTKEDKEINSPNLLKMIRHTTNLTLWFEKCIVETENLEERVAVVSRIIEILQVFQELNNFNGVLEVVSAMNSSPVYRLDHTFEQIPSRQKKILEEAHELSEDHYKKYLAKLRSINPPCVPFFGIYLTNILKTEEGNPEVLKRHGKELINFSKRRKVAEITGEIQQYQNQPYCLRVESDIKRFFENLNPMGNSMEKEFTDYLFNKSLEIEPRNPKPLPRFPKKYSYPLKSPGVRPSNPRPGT
The assay is described as follows: Biochemical Assay 1: hK-RasG12C interaction assay with hSOS1 (HTRF). The format is binding. As to conditions: values expressed as IC50. The procedure, abridged:
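HTRF signal between GST-hK-RasG12C (10 nM working solution, anti-GST-Eu) and His-hSOS1 (20 nM working solution, anti-6His-XL665) was read in HEPES pH 7.4 buffer with 10 mM EDTA, 1 mM DTT and 100 mM KF at 20 °C.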
(In general: In TR-FRET formats the signal depends on donor and acceptor labels being close together.)

The target of assay [2] is T2, Epidermal Growth Factor Receptor (EGFR) (Homo sapiens, UniProt P00533).
T2 construct: purchased Sigma-Aldrich E3641
The assay is described as follows: EGFR kinase assay (TR-FRET). It is filed as biochemical. As to conditions: 10 μM ATP; read-out: EGFR kinase inhibition IC50. The method in brief:
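EGFR purified from A431 cells pre-incubated 15 min with compound, then reacted 20 min at 22 °C with 10 μM ATP and 1 μM biotinylated peptide (final) in HEPES pH 7.0 with Mg2+/Mn2+. Phosphopeptide detected by TR-FRET (Tb anti-phosphotyrosine/streptavidin-XL665), 665/620 nm emission ratio.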

The term IC50 denotes the concentration that inhibits the measured activity by half.

T2 sequence (P00533 25-1210): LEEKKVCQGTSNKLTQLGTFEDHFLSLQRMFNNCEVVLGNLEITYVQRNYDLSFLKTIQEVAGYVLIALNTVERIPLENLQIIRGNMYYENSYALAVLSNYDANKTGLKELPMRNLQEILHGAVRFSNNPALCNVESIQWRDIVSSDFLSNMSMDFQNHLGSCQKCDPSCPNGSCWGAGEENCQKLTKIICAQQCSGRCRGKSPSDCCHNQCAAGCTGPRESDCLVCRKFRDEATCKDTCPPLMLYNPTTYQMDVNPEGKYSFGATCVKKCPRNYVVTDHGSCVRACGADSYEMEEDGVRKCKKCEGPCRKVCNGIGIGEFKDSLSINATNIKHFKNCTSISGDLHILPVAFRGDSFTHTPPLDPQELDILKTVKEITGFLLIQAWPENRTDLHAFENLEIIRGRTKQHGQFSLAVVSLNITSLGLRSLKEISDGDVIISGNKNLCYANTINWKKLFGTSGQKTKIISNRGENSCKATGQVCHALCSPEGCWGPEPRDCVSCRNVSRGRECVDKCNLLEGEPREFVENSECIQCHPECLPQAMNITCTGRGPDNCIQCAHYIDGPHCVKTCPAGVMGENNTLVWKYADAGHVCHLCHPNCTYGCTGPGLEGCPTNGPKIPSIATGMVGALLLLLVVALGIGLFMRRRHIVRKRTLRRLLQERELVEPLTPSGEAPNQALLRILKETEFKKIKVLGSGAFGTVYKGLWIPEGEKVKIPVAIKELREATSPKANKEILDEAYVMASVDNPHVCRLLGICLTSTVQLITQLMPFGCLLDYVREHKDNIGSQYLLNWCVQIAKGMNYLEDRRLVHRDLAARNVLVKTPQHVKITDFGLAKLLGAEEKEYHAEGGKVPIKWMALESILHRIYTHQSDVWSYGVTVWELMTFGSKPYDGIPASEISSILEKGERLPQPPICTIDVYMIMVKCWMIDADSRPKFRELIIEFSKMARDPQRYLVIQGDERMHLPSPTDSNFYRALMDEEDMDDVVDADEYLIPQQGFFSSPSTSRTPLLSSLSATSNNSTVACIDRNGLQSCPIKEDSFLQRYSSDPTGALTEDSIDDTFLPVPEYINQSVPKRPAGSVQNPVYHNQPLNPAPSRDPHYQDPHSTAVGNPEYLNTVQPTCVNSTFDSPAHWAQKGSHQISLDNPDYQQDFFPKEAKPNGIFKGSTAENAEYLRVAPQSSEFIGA

Take `Cc1nc(NC(C)c2ccc(-c3ccccc3CN(C)C)s2)c2cc(N3CC(N)C3)ncc2n1` (centres unmarked) [Example 93, 6-(3-aminoazetidin-1-yl)-N-[1-(5-{2-[(dimethylamino)methyl]phenyl}thiophen-2-yl)ethyl]-2-methylpyrido[3,4-d]pyrimidin-4-amine]: the IC50 in assay [1] was 33.5 nM; in assay [2], over 20000 nM.

On to `Cc1nc(NC(C)c2ccc(-c3ccccc3CN(C)C)s2)c2cc(N3CC(NS(=O)(=O)c4ccccc4)C3)ncc2n1` (centres unmarked) [Example 94, N-[1-(4-{[1-(5-{2-[(dimethylamino)methyl]phenyl}thiophen-2-yl)ethyl]amino}-2-methylpyrido[3,4-d]pyrimidin-6-yl)azetidin-3-yl]benzenesulfonamide], for which the IC50 is 57.2 nM in assay [1] and over 20000 nM in assay [2].

Take `Cc1nc(NC(C)c2ccc(-c3ccccc3CN(C)C)s2)c2cc(N3CC(NS(=O)(=O)Cc4ccccc4)C3)ncc2n1` (centres unmarked) [Example 95, N-[1-(4-{[1-(5-{2-[(dimethylamino)methyl]phenyl}thiophen-2-yl)ethyl]amino}-2-methylpyrido[3,4-d]pyrimidin-6-yl)azetidin-3-yl]-1-phenylmethanesulfonamide]: the concentration for half-maximal inhibition (IC50) is 107 nM in assay [1] and over 20000 nM in assay [2].

In the case of `Cc1nc(NC(C)c2ccc(-c3ccccc3CN(C)C)s2)c2cc(N3CC(NC(=O)Nc4ccccc4)C3)ncc2n1` (centres unmarked) [Example 96, 1-[1-(4-{[1-(5-{2-[(dimethylamino)methyl]phenyl}thiophen-2-yl)ethyl]amino}-2-methylpyrido[3,4-d]pyrimidin-6-yl)azetidin-3-yl]-3-phenylurea], the IC50 in assay [1] is 76.6 nM; in assay [2] it was over 20000 nM.
